Measurements as given in EP0567613B1, “COMPOSITIONS FOR THERAPY AND PREVENTION OF CANCER” (The Government of the United States of America, as …, priority 1991, dated 1993).

Assays:
4C8a10 cells = test: Malignant phenotype in culture / growth on matrigel; assay type: cell-based
Description: The experimental model involved nonmalignant 4C8a10 cells (revertants of Haras-transformed NIH3T3 fibroblasts). […]
^b Cells were plated on top of matrigel (reconstituted basement membrane) and observed for malignant growth pattern, i.e., active replication, development of characteristic processes, and invasion.

[1] = test system: premalignant 10T1/2 cells; test: cells
Description: C. Quantitation of adipocytosis. Lipids stained with Oil-Red O were extracted with butanol, and the optical density at 510 nm determined.
Lower: Quantitation of adipocytosis. Cells were fixed with 37% formaldehyde and stained with Oil-Red O. The stained intracellular lipid was extracted with butanol, and the optical density was determined using a Titertek Multiskan MC, manufactured by Flow Laboratories, at a wavelength 510 nm.

Prostatic PC3 Cells = test: Tumorigenicity of pretreated cells in nude mice; assay type: in vivo, athymic nude mice; conditions: cells pretreated 1 week at 0.8 mg/ml, 8 weeks later
Description: PC3 cells were pretreated for 1 week in culture and then injected (2 x 10^5 cells/animal) s.c. into 4-5 week-old female athymic nude mice. […] The data in Table 4 are a summary of two independent experiments.

Melanoma SK MEL 28 = test: Tumor cell growth / proliferation; assay type: cell-based; conditions: Homo sapiens

For `O=C([O-])Cc1ccccc1.[Na+]` [NaPA, sodium phenylacetate], the Growth on matrigel (4C8a10 cells; NaPA 1.5 mg/ml) was “-”, the “development of the malignant phenotype” value (4C8a10 cells; in 5-AzadC treated cultures) was “prevented the development of the malignant phenotype” and the cytotoxic effect ([1]; 800 µg/ml) was “totally free of cytotoxic effect”. For the same compound, the “Differentiation at 1 mM” value ([1]; 1 mM, sodium salts) was 65%, the “adipocyte conversion, share of the cell population” value ([1]; 10T1/2 model) was “over 80%” and the DC50 ([1]; Mus musculus, Adipocyte, read-out: DC50, concentration of compound causing 50% differentiation) was 700 µM. The Incidence (Prostatic PC3 Cells; 2 x 10^5 cells/animal s.c.) was 1/7, the Diameter (Prostatic PC3 Cells) was 2 mm ± S.D and the Weight (Prostatic PC3 Cells) was 50 mg. For the same compound, the inhibition at 800 µg/mL (Melanoma SK MEL 28; read-out: % Inhibition by NaPA 0.8 mg/ml, 0.8 mg/ml) was over 50% and the IC50 (Melanoma SK MEL 28; read-out: concentration causing about 50% inhibition of growth) was 400 to 800 mg/L.
